Experimental data taken from patent US12595243B2, “Modulators of extracellular signal-regulated kinase” (GEN1E LIFESCIENCES INC., priority 2023, dated 2026).
Read-outs that look alike come from different tables or passages of the source.

Assays:
[1] = Cytotoxicity in primary cells (CellTiter-Glo), PBMC; type: cell-based; conditions: mean of three tests
Text: (§1) All cells were obtained from ATCC. […] Normocin® was obtained from InvivoGen. FBS was obtained from Gibco. […] All test compounds were synthesized as described herein.

[2] = tested on: human pancreatic carcinoma cell line PL-45; assay: Cytotoxicity in cancer cell lines (CellTiter-Glo), PL-45; conditions: PL45, 48 h, read-out: Cytotoxicity EC50 at 48 hours, PL-45
Procedure: (§2) The cytotoxicity of test compounds was determined for several cell lines including melanoma cell line RPMI-7951, melanoma cell line Sk-Mel-28, melanoma cell line A375, melanoma cell line U87, glioblastoma cell line U87, immortalized human T lymphocyte Jurkat cells, and human pancreatic carcinoma cell line PL-45.
(§3) All cells were obtained from ATCC. RPMI, DMEM, EMEM and pen/strep were obtained from Invitrogen. Normocin® was obtained from InvivoGen. FBS was obtained from Gibco. Cell viability reagent Cell-titer glow was obtained from Promega.
(§4) The growth media for A375 and PL45 cells was DMEM supplemented with antibiotic/anti-mycotic pen/strep and Normocin® (InvivoGen) and 10% FBS.
(§5) Ten (10) mM solutions of each of the test compounds were prepared in dimethyl sulfoxide (DMSO) and serially diluted in DMSO to provide solutions having concentrations of the test compound of 3 mM, 1 mM, 0.3 mM, 0.1 mM, 0.03 mM, or 0.01 mM. Forty (40) μL of each of the solutions were further diluted to 400 μL in the cell specific complete media to provide 10× stock solutions having a 1 mM, 300 μM, 100 μM, 30 μM, 10 μM, 3 μM, 1 μM, or 0.3 μM of the test compound. Ten (10) μL of DMSO was diluted to 400 μL in the complete media and used as the 0 μM control.
(§6) For the cytotoxicity studies, all cells were grown in their respective complete media. Confluent cells were harvested and plated into two 96-well tissue culture treated plates at 5,000-8,000 cells/wells in 180 μL media. Twenty (20) μL of each of the 10× stock solutions were added to the wells and mixed.
(§7) After incubating for 24 h, media was aspirated out and replaced with 180 μL/well of the fresh media and 20 μL/well of the 10× stock solutions in duplicate wells in duplicate plates (Plates 1 and 2; and 3 and 4) and in quadruplicate wells (Plate 5) were added, mixed and cultured for 48 hours. The final concentrations of each test compound were 100 μM, 30 μM, 10 μM, 3 μM, 1 μM, 0.3 μM, 0.1 μM and 0 μM.
(§8) After 48 hours and/or 72 hours following addition of the test compounds, one plate each was removed from the incubator, the media aspirated out, 100 μL of CellTiter-Glo® reagent added to each well, and the resulting luminescent signals measured using a VICTOR-2® plate reader.
(§9) The data from the plate reader were exported to GraphPad (Prism) and data processed using non-linear regression and EC50 value determined.

melanoma cell line A375 = assay: Cytotoxicity in cancer cell lines (CellTiter-Glo), A375; conditions: A375 cells, mean of three tests
Procedure: as §2, §3, §4, §5, §6, §7, §8, §9

[3] = tested on: glioblastoma cell line U87; assay: Cytotoxicity in cancer cell lines (CellTiter-Glo), U87; type: cell-based; conditions: Homo sapiens, U-87 MG, U87 cells, mean of three tests
Text: as §1

[4] = tested on: immortalized human T lymphocyte Jurkat cells; assay: Cytotoxicity in cancer cell lines (CellTiter-Glo), Jurkat; type: cell-based; conditions: Jurkat cells, mean of three tests
Text: as §1

[5] = tested on: melanoma cell line RPMI-7951; assay: Cytotoxicity in cancer cell lines (CellTiter-Glo), RPMI-7951; type: cell-based; conditions: Homo sapiens
Text: as §1

[6] = tested on: melanoma cell line Sk-Mel-28; assay: Cytotoxicity in cancer cell lines (CellTiter-Glo), Sk-Mel-28; type: cell-based; conditions: Homo sapiens, Sk-Mel-28 cells, mean of three tests
Text: as §1

[7] = Homo sapiens, A-375, 48 h, read-out: Cytotoxicity EC50 at 48 hours, A375, 48 h
[8] = 48 h, read-out: Cytotoxicity EC50 at 48 hours, U87
[9] = 72 h, read-out: Cytotoxicity EC50 at 72 hours, U87
[10] = 48 h, read-out: Cytotoxicity EC50 at 48 hours, Jurkat
[11] = 72 h, read-out: Cytotoxicity EC50 at 72 hours, Jurkat
[12] = RPMI-7951, 48 h, read-out: Cytotoxicity EC50 at 48 hours, RPMI
[13] = RPMI-7951, 72 h, read-out: Cytotoxicity EC50 at 72 hours, RPMI
[14] = SK-MEL-28, 48 h, 48 h, read-out: Cytotoxicity EC50 at 48 hours, Sk mel
[15] = SK-MEL-28, 72 h, 72 h, read-out: Cytotoxicity EC50 at 72 hours, Sk mel
[16] = Homo sapiens, A-375, 72 h, read-out: Cytotoxicity EC50 at 72 hours, A375, 72 h

| SMILES | EC50 [2] | EC50 (melanoma cell line A375; [7]) | further results |
| --- | --- | --- | --- |
| CC(C)Nc1cc(-c2c[nH]c(C(=O)N[C@H](CO)c3cccc(Cl)c3)c2)c(Cl)cn1 [Ulixertinib, ulixertinib, reference compound] | 14000 nM | 600 nM | EC50 at 48 h [1]: 31000 nM |
| O=S1(=O)C=CC(OS(=O)(=O)c2ccc3ccccc3c2)C1 (stereo not shown) [(1), 1,1-dioxido-2,3-dihydrothiophen-3-yl naphthalene-2-sulfonate] | 2100 nM | 4000 nM | EC50 [3, 8]: 1000 nM; EC50 [3, 9]: 4000 nM; EC50 at 48 h [1]: 400 nM; EC50 at 72 h [1]: 400 nM; EC50 [4, 10]: 3000 nM; EC50 [4, 11]: 5000 nM; EC50 [5, 12]: 1000 nM; EC50 [5, 13]: 4000 nM; EC50 [6, 14]: 4000 nM; EC50 [6, 15]: 300 nM; EC50 (melanoma cell line A375; [16]): 800 nM |
| O=C(OC1C=CS(=O)(=O)C1)c1ccc(-c2ccccc2)cc1 (stereo not shown) [(24), 1,1-dioxido-2,3-dihydrothiophen-3-yl [1,1′-biphenyl]-4-carboxylate] | 49000 nM | > 100000 nM | – |
| O=C(c1ccccc1)c1ccc(S(=O)(=O)OC2C=CS(=O)(=O)C2)cc1 (stereo not shown) [(38), 1,1-dioxido-2,3-dihydrothiophen-3-yl 4-benzoylbenzenesulfonate] | 500 nM | 200 nM | – |
| O=S1(=O)C=CC(OS(=O)(=O)c2cccc(C3CCCCC3)c2)C1 (stereo not shown) [(35), 1,1-dioxido-2,3-dihydrothiophen-3-yl 3-cyclohexylbenzenesulfonate] | 1200 nM | 1000 nM | – |
| COS(=O)(=O)c1ccc2ccccc2c1 [(30), methyl naphthalene-2-sulfonate] | 8800 nM | > 100000 nM | – |
| O=S1(=O)C=CC(OS(=O)(=O)c2ccc(Sc3ccccc3)cc2)C1 (stereo not shown) [(44), 1,1-dioxido-2,3-dihydrothiophen-3-yl 4-(phenylthio)benzenesulfonate] | 800 nM | 3210 nM | – |
| O=S1(=O)C=CC(OS(=O)(=O)c2ccc(C3CCCCC3)cc2)C1 (stereo not shown) [(34), 1,1-dioxido-2,3-dihydrothiophen-3-yl 4-cyclohexylbenzenesulfonate] | 900 nM | 1500 nM | – |
| O=S1(=O)C=CC(OS(=O)(=O)c2ccc(-c3ccccc3)cc2)C1 (stereo not shown) [(17), 1,1-dioxido-2,3-dihydrothiophen-3-yl [1,1′-biphenyl]-4-sulfonate] | – | – | EC50 [3, 8]: 2000 nM; EC50 [3, 9]: 900 nM; EC50 at 48 h [1]: 500 nM; EC50 at 72 h [1]: 500 nM; EC50 [4, 10]: 9000 nM; EC50 [4, 11]: 2000 nM; EC50 [5, 12]: 1000 nM; EC50 [5, 13]: 400 nM; EC50 [6, 14]: 3200 nM; EC50 [6, 15]: 800 nM; EC50 (melanoma cell line A375; [16]): 10000 nM; EC50 (melanoma cell line A375; read-out: Cytotoxicity EC50 at 48 hours, A375, 48 h): 2600 nM |
| O=S1(=O)C=CC(OS(=O)(=O)c2cccc(-c3ccccc3)c2)C1 (stereo not shown) [(26), 1,1-dioxido-2,3-dihydrothiophen-3-yl [1,1′-biphenyl]-3-sulfonate] | 1000 nM | 7000 nM | – |
| O=S1(=O)C=CC(OS(=O)(=O)c2cccc(Oc3ccccc3)c2)C1 (stereo not shown) [(25), 1,1-dioxido-2,3-dihydrothiophen-3-yl 3-phenoxybenzenesulfonate] | 900 nM | 6000 nM | – |
| Cc1cc(Oc2ccccc2)ccc1S(=O)(=O)OC1C=CS(=O)(=O)C1 (stereo not shown) [(40), 1,1-dioxido-2,3-dihydrothiophen-3-yl 2-methyl-4-phenoxybenzenesulfonate] | 200 nM | 300 nM | – |
| O=S1(=O)C=CC(OS(=O)(=O)c2ccc(Oc3ccccc3)cc2)C1 (stereo not shown) [(18), 1,1-dioxido-2,3-dihydrothiophen-3-yl 4-phenoxybenzenesulfonate] | – | 2000 nM | EC50 [3, 8]: 1000 nM; EC50 at 48 h [1]: 200 nM; EC50 at 72 h [1]: 21000 nM; EC50 [6, 14]: 2000 nM; EC50 [6, 15]: 3000 nM |
| O=S1(=O)C=CC(OS(=O)(=O)c2ccc(OC3CCCCC3)cc2)C1 (stereo not shown) [(36), 1,1-dioxido-2,3-dihydrothiophen-3-yl 4-(cyclohexyloxy)benzenesulfonate] | 2100 nM | 4300 nM | – |
| Cc1cc(S(=O)(=O)OC2C=CS(=O)(=O)C2)ccc1Oc1ccccc1 (stereo not shown) [(42)] | 1200 nM | 500 nM | – |
| O=C(OC1C=CS(=O)(=O)C1)c1ccc(Oc2ccccc2)cc1 (stereo not shown) [(23), 1,1-Dioxido-2,3-dihydrothiophen-3-yl 4-phenoxybenzoate] | 8300 nM | 23000 nM | – |
